The results in this text go back to patent US20210261539A1, “COMPOUND HAVING BET INHIBITORY ACTIVITY AND PREPARATION METHOD AND USE THEREFOR” (Shanghai Haihe Pharmaceutical Co., Ltd., priority 2018, published 2021).

This assay deals with T1, BRD4 BD1 (Homo sapiens, UniProt O60885).
T1 construct: Protein BRD4 BD1 used in the assay was purchased from Active Motif (cat. 31380); purchased Active Motif 31380
Description: HTRF in vitro enzyme activity assay, inhibition of BRD4 BD1 binding to acetylated H4 peptide. Particulars: IC50 values of the compounds against BRD4 BD1 binding; class symbols A/B/C. The method, then: Effect Examples: In Vitro Enzyme Activity Assay
Half inhibitory activity (IC50) of the compounds of the invention against the bromodomain protein BRD4 BD1 was determined in the present Examples.
The compounds of the invention were tested for inhibitory activity against BRD4 BD1 with Homogeneous Time-Resolved Fluorescence (HTRF).
2. Reagents, Consumable Materials and Instruments:
Protein BRD4 BD1 used in the assay was purchased from Active Motif (cat. 31380); streptavidin XL-665 (#610SAXLA) and EPIgeneous Binding Domain Kit A (#62BDAPEG) were both purchased from Cisbio Bioassays; [Lys(5,8,12,16)Ac] H4(1-21)-biotin (#64989), [Lys(5,8,12,16)Ac]H4(1-25) were available from Anaspec; OTX015 and ABBV-075 were purchased from Selleckchem Co. The 384-well ProxiPlate (#6008280) was purchased from Perkinelmer Co. The Laboratory microplate reader (Envision 2104) was available from PerkinElmer Co. The water used in the assay was Millipore-Q pure water.
3. Formulation of the Compound
10 mM DMSO stock solution of the test compound was diluted to 1 mM in DMSO, and then diluted 10-fold in Binding Domain dilution buffer (purchased from Cisbio Bioassays) for use (DMSO concentration in the final system was 0.1%), including 5 concentrations in 1:5 gradient.
4. Assay Protocol: 1 Batch, 2 Repeats
1) 5 μL of test compound was transferred to 45 μL Binding Domain dilution buffer.
2) 2 μL of 1× compound (4 μL Binding Domain dilution buffer: positive control; 6 μL enzyme buffer (purchased from Cisbio Bioassays): negative control) was transferred to a reaction plate.
3) 4 μL of 5×BRD 4(1) was added to the reaction plate (30 nM in the final system).
4) 4 μL of 5×[Lys(5,8,12,16)Ac] H4(1-21)-biotin was added to the reaction plate, and the plate was covered with a film and incubated at 37° C. for 30 min.
5) A detection mixture of SA-XL665 (2×) and anti-H3K9me0-Eu(K) (2×) was prepared in detection buffer (purchased from Cisbio Bioassays).
6) 10 μL of detection mixture (2×) was added to each well, incubated at RT for 3 h. The mp value was read by microplate reader Envision with the following parameters: […]
What is called IC50 is the concentration that gives 50% inhibition. Lower therefore signals greater potency. On to `C[C@H]1Oc2nc(N3C(=O)c4sccc4C3c3cccnc3)ccc2N(C)C1=O` (single isomer, unassigned) [Example A115-P1], for which the 50% inhibitory concentration (IC50) is no more than 10 nM.
Under `CC1C(=O)N(C)c2ccc(N3C(=O)c4c(C(=O)NC5CC5)cccc4C3c3ccc(F)cc3)nc2N1CC(F)(F)F` (stereo not drawn) [Example A85-P4, N-cyclopropyl-2-(1,3-dimethyl-2-oxo-4-(2,2,2-trifluoroethyl)-1,2,3,4-tetrahydropyrido[2,3-b]pyrazin-6-fluorophenyl)-3-oxoisoindoline-4-carboxamide] stands no more than 10 nM.
With `C[C@H]1Oc2nc(N3C(=O)c4ccccc4C3c3ccc(F)nc3)c(F)cc2N(C)C1=O` (single isomer, unassigned) [Example A126-P1] the figure was 10 to 100 nM.
Under `[2H]C([2H])([2H])N1C(=O)C(C)N(C2CC2)c2nc(N3C(=O)c4ccccc4C3c3ccc(F)cc3)ccc21` (stereo not drawn) [Example A51-P3, 4-cyclopropyl-6-(1-(4-fluorophenyl)-3-oxoisoindolin-2-yl)-3-methyl-1-(trideuteromethyl)-3,4-dihydropyrido [2,3-B]pyrazin2(1 H)-one] stands no more than 10 nM; under `C[C@H]1Oc2nc(N3C(=O)c4ccccc4C3c3ccccn3)ccc2N(C)C1=O` (single isomer, unassigned) [Example A121-P1], no more than 10 nM; under `CC1C(=O)N(C)c2cnc(-n3c(=O)c4ccccc4n3-c3ccc(Cl)cc3)cc2N1C1CC1` (stereo not drawn) [Example A29-P4, 7-(1-(4-chlorophenyl)-3-oxo-1H-indazol-2(3H)-yl)-1-cyclopropyl-2,4-dimethyl-1,2-dihydropyrido [3 4-b]pyrazin-3(4H)-one], no more than 10 nM.
`CC1C(=O)N(C)c2cnc(N3C(=O)c4ccccc4C3c3cccnc3)nc2N1C1CC1` (single isomer, unassigned) [Example A98-P3, 8-cyclopropyl-5,7-dimethyl-2-(1-oxo-3-(pyridin-3-yl)isoindolin-2-yl)-7,8-dihydropteridin-6(5H)-one] registered an IC50 of no more than 10 nM.
As for `CC1C(=O)N(C)c2ccc(N3C(=O)c4ccccc4C3c3ccc(F)cn3)nc2N1C1CC1` (single isomer, unassigned) [Example A68-P3, 4-cyclopropyl-6-(1-(5-fluoropyridin-2-yl)-3-oxoisoindolin-2-yl)-1,3-dimethyl-3,4-dihydropyrido[2,3-b]pyrazin-2(1H)-one], the 50% inhibitory concentration (IC50) was no more than 10 nM.
Turning to `C[C@@H]1C(=O)N(C)c2cnc(N3C(=O)c4c(cccc4C(C)(C)O)C3c3ccc(F)cc3)nc2N1C` (single isomer, unassigned) [Example A96-P1], the half-maximal inhibitory concentration (IC50) is no more than 10 nM.
With `C[C@@H]1C(=O)N(C)c2ccc(N3C(=O)c4ccccc4C3c3ccccn3)nc2N1C` (stereo partly drawn) [Example A42-P2, (3R)-1,3,4-trimethyl-6-(1-oxo-3-(pyridin-2-yl)isoindolin-2-yl)-3,4-dihydropyrido [2,3-b]pyrazin-2-(1H)-one] the figure was no more than 10 nM; with `C[C@@H]1C(=O)N(C)c2cnc(N3C(=O)c4cc(F)ccc4C3c3cccnc3)nc2N1C1CC1` (stereo partly drawn) [Example A95-P4, (7R)-8-cyclopropyl-2-(5-fluoro-3-oxo-1-(pyridin-3-yl)isoindolin-2-yl)-5,7 dimethyl-7,8-dihydropteridin-6(5H)-one], no more than 10 nM.
With `CC1C(=O)N(C)c2cnc(N3C(=O)c4ccccc4C3c3ccccc3)nc2N1C1CC1` (single isomer, unassigned) [Example A92-P4, 8-cyclopropyl-5,7-dimethyl-2-(1-oxo-3-phenylisoindolin-2-yl)-7,8-dihydropteridin-6(5H)-one] the figure was no more than 10 nM; with `CC1C(=O)N(C)c2ccc(N3C(=O)c4sccc4C3c3cccnc3)nc2N1C1CC1` (single isomer, unassigned) [Example A72-P4, 5-(4-cyclopropyl-1,3-dimethyl-2-oxo-1,2,3,4-tetrahydropyrido[2,3-b]pyrazin-6-yl)-4-(pyridin-3-yl)-4,5-dihydro-6H-thieno[2,3-c]pyrrol-6-one], no more than 10 nM; with `CC1C(=O)N(C)c2ccc(N3C(=O)c4ccccc4C3c3ccc(Cl)cc3)nc2N1CCO` (racemic) [Example A34, 6-(1-(4-chlorophenyl)-3-oxoisoindolin-2-yl)-4-(2-hydroxyethyl)-1,3-dimethyl-3,4-dihydropyrido [2,3-b]pyrazin-2(1H)-one], no more than 10 nM.
With `C[C@H]1Oc2nc(N3C(=O)c4ccccc4C3c3ccc(Cl)cc3)ccc2N(C)C1=O` (stereo partly drawn) [Example A40-P1, (3R)-6-(1-(4-chlorophenyl)-3-oxoisoindolin-2-yl)-1,3-dimethyl-1H-pyrido[2,3-B][1,4]oxazin-2(3H)-one] the figure was no more than 10 nM; with `CSc1cccc2c1C(=O)N(c1ccc3c(n1)N(C1CC1)C(C)C(=O)N3C)C2c1cccnc1` (single isomer, unassigned) [Example A65-P3, 4-cyclopropyl-1,3-dimethyl-6-(4-(methylthio)-3-oxo-1-(pyridin-3-yl)isoindolin-2-yl)-3,4-dihydropyrido[2,3-b]pyrazin-2(1H)-one], no more than 10 nM; with `CC1C(=O)N(C)c2cnc(N3C(=O)c4ccccc4C3c3ccc(C(F)(F)F)cc3)nc2N1C1CC1` (single isomer, unassigned) [Example A93-P4, 8-cyclopropyl-5,7-dimethyl-2-(1-oxo-3-(4-(trifluoromethyl)phenyl)isoindolin-2-yl)-7,8-dihydropteridin-6(5H)-one], no more than 10 nM.
As for `C[C@H]1Oc2nc(N3C(=O)c4ccccc4C3c3ccc(F)cn3)ccc2N(C)C1=O` (single isomer, unassigned) [Example A110-P1], the IC50 is no more than 10 nM.
On to `C[C@H]1Oc2nc(N3C(=O)c4cc(F)ccc4C3c3cccnc3)c(F)cc2N(C)C1=O` (stereo partly drawn) [Example A118, (3R)-7-fluoro-6-(5-fluoro-3-oxo-1-(pyridin-3-yl)isoindolin-2-yl)-1,3-dimethyl-1H-pyrido[2,3-B][1,4]oxazin-2(3H)-one], for which the IC50 fell in the range of 100 to 1000 nM.
Under `CC1C(=O)N(C)c2ccc(N3C(=O)c4c(cccc4[S+](C)[O-])C3c3cccnc3)nc2N1C1CC1` (single isomer, unassigned) [Example A60-P3] stands no more than 10 nM.
On to `C[C@@H]1C(=O)N(C)c2ccc(N3C(=O)c4ccccc4C3c3cccnc3)nc2N1CCF` (single isomer, unassigned) [Example A55-P2, 4-(2-fluoroethyl)-1,3-dimethyl-6-(1-oxo-3-(pyridin-3-yl)isoindolin-2-yl)-3,4-dihydropyrido [2,3-b]pyrazin-2(1H)-one], for which the half-maximal inhibitory concentration (IC50) is no more than 10 nM.
Under `CC1C(=O)N(C)c2ccc(N3C(=O)CCC3c3ccccn3)nc2N1C1CC1` (single isomer, unassigned) [Example A6-P1, 4-cyclopropyl-1,3-dimethyl-6-(2-oxo-5-(pyridin-2-yl)pyrrolidin-1-yl)-3,4-dihydropyrido[2,3-b]pyrazin-2(1H)-one] stands no more than 10 nM; under `CC1C(=O)N(C)c2ccc(N3C(=O)c4ccccc4C3c3cccnc3)nc2N1CC(F)(F)F` (stereo not drawn) [Example A59-P2, 1,3-dimethyl-6-(1-oxo-3-(pyridin-3-yl)isoindolin-2-yl)-4-(2,2,2-trifluoroethyl)-3,4-dihydropyrido[2,3-b]pyrazin-2(1H)-one], no more than 10 nM; under `CC1C(=O)N(C)c2ccc(N3C(=O)c4ccccc4C3c3ccc(Cl)cc3)nc2N1C1COC1` (stereo not drawn) [Example A31-P3, 6-(1-(4-chlorophenyl)-3-oxoisoindolin-2-yl)-1,3-dimethyl-4-(oxacyclebutan-3-yl)-3,4-dihydropyrido [3,2-B]pyrazin-2(1H)-one], no more than 10 nM.
With `COC(=O)c1cccc2c1C(=O)N(c1ccc3c(n1)N(C1CC1)C(C)C(=O)N3C)C2c1cccnc1` (single isomer, unassigned) [Example A84-P4, Methyl 2-(4-cyclopropyl-1,3-dimethyl-2-oxo-1,2,3,4-tetrahydropyrido[2,3-b]pyrazin-6-yl)-3-oxo-1-(pyridin-3-yl)isoindoline-4-carboxylate] the figure was no more than 10 nM.
Compound `CC1C(=O)N(C)c2ccc(N3C(=O)c4cc(C(=O)O)ccc4C3c3ccc(F)cc3)nc2N1C1CC1` (stereo not drawn) [A77-P1/P4, 2-(4-cyclopropyl-1,3-dimethyl-2-oxo-1,2,3,4-tetrahydropyrido[2,3-b]pyrazin-6-yl)-1-(4-fluorophenyl)-3-oxoisoindoline-5-carboxylic acid] yielded an IC50 of no more than 10 nM.
With `CC1C(=O)N(C)c2c(F)cc(N3C(=O)c4ccccc4C3c3cccnc3)cc2N1C1CC1` (single isomer, unassigned) [Example A71-P4, 4-cyclopropyl-8-fluoro-1,3-dimethyl-6-(1-oxo-3-(pyridin-3-yl)isoindolin-2-yl)-3,4-dihydroquinoxalin-2(1H)-one] the figure was no more than 10 nM.
